Assay results from the NIST ThermoML archive (doi:10.1021/je8009336).
± gives the expanded uncertainty stated by the source.

Tests used:
[1] = refractive index (Na D-line) (dimensionless); xn = mol fraction of the nth substance listed; details: 313.15 K, 101 kPa, Liquid, Standard Abbe refractometry
[2] = xn = mol fraction of the nth substance listed; details: 313.15 K, 101 kPa, Liquid; for speed of sound: Vibrating Tube Densimeter; for mass density: Vibrating tube method
[3] = refractive index (Na D-line) (dimensionless); details: 101.33 kPa, Liquid, Standard Abbe refractometry
[4] = Liquid; for mass density: Vibrating tube method

Work on `CC1CCCCC1` [methylcyclohexane] + Cc1ccccc1 yielded a refractive index ([1]; x1 = 0.0488) of 1.48065 ± 0.00068, a refractive index ([1]; x1 = 0.0977) of 1.4763 ± 0.00068 and a refractive index ([1]; x1 = 0.1967) of 1.4675 ± 0.00068. It also gave a refractive index ([1]; x1 = 0.2969) of 1.45909 ± 0.00068, a refractive index ([1]; x1 = 0.3751) of 1.45314 ± 0.00068 and a refractive index ([1]; x1 = 0.5049) of 1.44348 ± 0.00069. The refractive index ([1]; x1 = 0.5986) was 1.43702 ± 0.00069, the refractive index ([1]; x1 = 0.7022) was 1.43008 ± 0.00069 and the refractive index ([1]; x1 = 0.8016) was 1.42397 ± 0.0007. The refractive index ([1]; x1 = 0.9003) was 1.41817 ± 0.0007, the refractive index ([1]; x1 = 0.9487) was 1.41549 ± 0.0007 and the refractive index ([1]; x1 = 1) was 1.41272 ± 0.0007. The speed of sound ([2]; x1 = 0.0488) was 1233.3 ± 2.1 m/s, the speed of sound ([2]; x1 = 0.0977) was 1226 ± 2.1 m/s and the speed of sound ([2]; x1 = 0.1967) was 1212.4 ± 2.1 m/s. It also gave a speed of sound ([2]; x1 = 0.2969) of 1200.1 ± 2.1 m/s, a speed of sound ([2]; x1 = 0.3751) of 1191.7 ± 2.1 m/s and a speed of sound ([2]; x1 = 0.5049) of 1179.2 ± 2.1 m/s. It also gave a speed of sound ([2]; x1 = 0.5986) of 1171.5 ± 2.2 m/s, a speed of sound ([2]; x1 = 0.7022) of 1164 ± 2.2 m/s and a speed of sound ([2]; x1 = 0.8016) of 1158.1 ± 2.2 m/s. The speed of sound ([2]; x1 = 0.9003) was 1153.2 ± 2.3 m/s, the speed of sound ([2]; x1 = 0.9487) was 1151.2 ± 2.3 m/s and the speed of sound ([2]; x1 = 1) was 1149.6 ± 2.3 m/s. For the same compound, the mass density ([2]; x1 = 0.0488) was 842.1 ± 0.2 kg/m3, the mass density ([2]; x1 = 0.0977) was 836.1 ± 0.2 kg/m3 and the mass density ([2]; x1 = 0.1967) was 824.6 ± 0.2 kg/m3. For the same compound, the mass density ([2]; x1 = 0.2969) was 813.6 ± 0.3 kg/m3, the mass density ([2]; x1 = 0.3751) was 805.5 ± 0.3 kg/m3 and the mass density ([2]; x1 = 0.5049) was 792.7 ± 0.3 kg/m3. For the same compound, the mass density ([2]; x1 = 0.5986) was 784 ± 0.3 kg/m3, the mass density ([2]; x1 = 0.7022) was 774.9 ± 0.3 kg/m3 and the mass density ([2]; x1 = 0.8016) was 766.8 ± 0.3 kg/m3. It also gave a mass density ([2]; x1 = 0.9003) of 759.1 ± 0.3 kg/m3, a mass density ([2]; x1 = 0.9487) of 755.5 ± 0.3 kg/m3 and a mass density ([2]; x1 = 1) of 752 ± 0.3 kg/m3.

Work on `CC1CCCCC1` [methylcyclohexane] + c1ccccc1 yielded a refractive index ([1]; x1 = 0.0486) of 1.48201 ± 0.00068, a refractive index ([1]; x1 = 0.0982) of 1.47621 ± 0.00068 and a refractive index ([1]; x1 = 0.1995) of 1.46566 ± 0.00068. For the same compound, the refractive index ([1]; x1 = 0.2999) was 1.45619 ± 0.00068, the refractive index ([1]; x1 = 0.4038) was 1.44745 ± 0.00068 and the refractive index ([1]; x1 = 0.4998) was 1.44043 ± 0.00069. The refractive index ([1]; x1 = 0.612) was 1.43297 ± 0.00069, the refractive index ([1]; x1 = 0.7053) was 1.42729 ± 0.00069 and the refractive index ([1]; x1 = 0.7994) was 1.42214 ± 0.0007. For the same compound, the refractive index ([1]; x1 = 0.8991) was 1.41728 ± 0.0007, the refractive index ([1]; x1 = 0.953) was 1.4148 ± 0.0007 and the refractive index ([1]; x1 = 1) was 1.41272 ± 0.0007. It also gave a speed of sound ([2]; x1 = 0.0486) of 1220.3 ± 2.1 m/s, a speed of sound ([2]; x1 = 0.0982) of 1211.2 ± 2.1 m/s and a speed of sound ([2]; x1 = 0.1995) of 1195.3 ± 2.1 m/s. The speed of sound ([2]; x1 = 0.2999) was 1182.5 ± 2.1 m/s, the speed of sound ([2]; x1 = 0.4038) was 1172 ± 2.1 m/s and the speed of sound ([2]; x1 = 0.4998) was 1164.6 ± 2.1 m/s. For the same compound, the speed of sound ([2]; x1 = 0.612) was 1158.1 ± 2.2 m/s, the speed of sound ([2]; x1 = 0.7053) was 1154.2 ± 2.2 m/s and the speed of sound ([2]; x1 = 0.7994) was 1151.5 ± 2.2 m/s. It also gave a speed of sound ([2]; x1 = 0.8991) of 1149.9 ± 2.3 m/s, a speed of sound ([2]; x1 = 0.953) of 1149.5 ± 2.3 m/s and a speed of sound ([2]; x1 = 1) of 1149.6 ± 2.3 m/s. The mass density ([2]; x1 = 0.0486) was 849.3 ± 0.3 kg/m3, the mass density ([2]; x1 = 0.0982) was 841.3 ± 0.2 kg/m3 and the mass density ([2]; x1 = 0.1995) was 826.7 ± 0.3 kg/m3. For the same compound, the mass density ([2]; x1 = 0.2999) was 813.5 ± 0.3 kg/m3, the mass density ([2]; x1 = 0.4038) was 801.3 ± 0.3 kg/m3 and the mass density ([2]; x1 = 0.4998) was 791.3 ± 0.3 kg/m3. The mass density ([2]; x1 = 0.612) was 780.7 ± 0.3 kg/m3, the mass density ([2]; x1 = 0.7053) was 772.6 ± 0.3 kg/m3 and the mass density ([2]; x1 = 0.7994) was 765.3 ± 0.3 kg/m3. For the same compound, the mass density ([2]; x1 = 0.8991) was 758.4 ± 0.3 kg/m3, the mass density ([2]; x1 = 0.953) was 754.8 ± 0.3 kg/m3 and the mass density ([2]; x1 = 1) was 752 ± 0.3 kg/m3.

In the case of `Cc1ccccc1` [toluene], the refractive index ([3]; 298.15 K) is reported as 1.49399 ± 0.00068, the refractive index ([3]; 313.15 K) is reported as 1.48509 ± 0.00068 and the mass density ([4]; 298.15 K, 101.33 kPa) is reported as 862.1 ± 0.2 kg/m3. It also gave a speed of sound ([4]; 313.15 K, 101 kPa, Vibrating Tube Densimeter) of 1240.9 ± 2.1 m/s and a mass density ([4]; 313.15 K, 101 kPa) of 848.2 ± 0.2 kg/m3.

For `Cc1ccccc1` [toluene] + C1CCCC1, the refractive index ([1]; x2 = 0) was 1.48509 ± 0.00068, the speed of sound ([2]; x2 = 0) was 1240.9 ± 2.1 m/s and the mass density ([2]; x2 = 0) was 848.2 ± 0.2 kg/m3.

Work on `Cc1ccccc1` [toluene] + C1CCCCC1 yielded a refractive index ([1]; x2 = 0) of 1.48509 ± 0.00068, a speed of sound ([2]; x2 = 0) of 1240.9 ± 2.1 m/s and a mass density ([2]; x2 = 0) of 848.2 ± 0.2 kg/m3.

In the case of `Cc1ccccc1` [toluene] + CC1CCCCC1, the refractive index ([1]; x2 = 0) is reported as 1.48509 ± 0.00068, the speed of sound ([2]; x2 = 0) is reported as 1240.9 ± 2.1 m/s and the mass density ([2]; x2 = 0) is reported as 848.2 ± 0.2 kg/m3.
